This is an account of results in publication PMC2688476, “Low affinity glucocorticoid binding site ligands as potential anti-fibrogenics” (Comparative Hepatology, 2009).

Counter-ions that a name gives are not always drawn. Like-named read-outs stand apart in the source and are kept apart here.

The target of data set [1] is low affinity glucocorticoid binding site (LAGS) in rat liver microsomes (Rattus norvegicus, UniProt P70580). Put plainly: Competition with radiolabelled dexamethasone for specific binding to rat liver microsomes (LAGS activity). Conditions: for IC50: vs radiolabelled dexamethasone. The procedure: A small volume of each incubation was removed to determine the total ligand concentration ([L0]) prior to removal of free unbound ligand by dextran/charcoal adsorption. […] Free ligand concentration at equilibrium was calculated by subtracting specifically bound ligand at equilibrium from the total ligand concentration (i.e. [L0] - [LRe]) and assumes receptor-ligand stoichiometry of 1:1.
In brief, rats were anaesthetized with pentobarbital and a 16G cannula inserted into the hepatic portal vein and secured. […] The liver was then excised and chopped roughly with ice-cooled TS buffer (10 mM Tris/HCl pH 7.4 containing 250 mM sucrose) and disrupted using a Potter-Elvehjem homogenisor. The resultant homogenate was then centrifuged at 12,000 g for 20 minutes at 4°C and the supernatant retained and centrifuged at 100,000 g for 60 minutes at 4°C. The resultant "microsomal" pellet was re-suspended in fresh TS buffer and re-centrifuged at 100,000 g to obtain a washed microsomal pellet. […] After overnight incubation on ice, free ligand was removed by charcoal dextran adsorption and bound radioligand determined in supernatants by liquid scintillation, essentially as previously described.
On the technique in general: Liver microsomes are a subcellular fraction often used to study metabolism.

The test system of a further data set is rat HSCs. The experiment in a line: Rat HSC-to-myofibroblast trans-differentiation (α-smooth muscle actin Western blot). It is filed as cell-based. Particulars: α-sma Western blot after 9 days of treatment. The method, then:
(§1) Figure 5 Screening for inhibitors of trans-differentiation in rat and human HSCs – Part 1. Rat HSCs were isolated and cultured for 2 days (T0) whereupon cells were treated with the indicated compound as outlined in methods section. After 9 days, cells were analyzed by Western blotting for α-smooth muscle actin (α-sma). Each lane contains 10 μg total protein/lane, results typical of at least 3 separate experiments (a). Human HSCs were treated with the indicated compound and confluence determined in randomly selected fields. Data are the mean and standard deviation confluence at day 12 of 3 separate treatment dishes from the same donor, typical of at least 3 separate donors (b).
(§2) HSCs were isolated from rats (250–300 g body weight, Harlan, UK) by sequential pronase/collagenase perfusion of the liver followed by density gradient centrifugation and elutriation as previously outlined. Human HSCs were isolated by an essentially similar procedure using discarded tissue from patients undergoing a hepatectomy with patient consent and ethical approval by the Grampian Regional Ethical Committee. HSCs were seeded onto plastic culture dishes and cultured in Dulbecco's modified Eagle Medium (DMEM) containing 4.5 g/l of glucose and supplemented with 5% or 16% (v/v) fetal calf serum (for rat or human respectively), […] penicillin, 80 μg/ml streptomycin and 32 μg/ml gentamycin. Additional treatments were made by addition of compounds in an ethanol vehicle (stock solutions at 1000× final concentration). Ethanol at 0.1% (v/v) acted as control. Frequency of treatment (3 treatments per week/2 medium changes per week), as previously described.
On the technique in general: A western blot detects proteins with antibodies after separation by electrophoresis.

In another data set the target is T1, rPGRMC1 (Rattus norvegicus, UniProt P70580).
T1 construct: the full length cDNA for rPGRMC1 was cloned from rat myofibroblasts and expressed in COS-7 cells; expressed in transfected cells; host or cells: COS-7 cells transfected with pSG5-rPGRMC1
Put plainly: Dexamethasone binding competition in COS-7 cells transfected with pSG5-rPGRMC1. Particulars: unlabelled competitor, Fig. 2e. The procedure:
Western blot for rPGRMC1 in various cell fractions using the anti-IZ Ab in COS-7 cells transfected with the indicated construct. All lanes were loaded with 10 μg protein/lane. Note, HC5 is a truncated form of rPGRMC1 cloned from rat kidney (a). Western blot for rPGRMC1 using the anti-IZ Ab and CYP2E1 (lower blot). Rat hepatocytes were cultured for 24 hours to allow attachment (T0) and then treated for 24 hours with the indicated ligand or ethanol vehicle prior to analysis. Each lane contains 10 μg total protein/well, typical of 3 separate experiments (b). […] The percentage of cells that stained positive for beta galactosidase activity (grey bars) was determined in situ in separate wells by examining at least 5 randomly selected low power fields. […] The percent of binding in the presence of unlabelled competitors was determined after subtraction of non-specific binding. […]
COS-7 cells were transfected at 30–50% confluency using Effectene transfection reagent (Qiagen, Southampton, UK) essentially according to the manufacturer's instructions with either pSG5 empty vector, pSG5-rPGRMC1 or the β-galactosidase-encoding pcDNA3.1e/lacZ vector (Invitrogen, Paisley, UK). Thirty hours after transfection, β-galactosidase activity was determined in fixed cells,in situ. […]

A further data set relates to CYP3A1/3A23. The experiment in a line: Screening for PXR activators in rat hepatocytes via CYP3A induction (Western blot). The format is cell-based. Particulars: 10 μM for 24 hours (PCN 20 μM), Western blot.
Another data set concerns human HSCs. The experiment in a line: Human HSC trans-differentiation/proliferation (confluence, α-sma). Conditions: confluence at day 12. The format is cell-based. The method, then: as §1
Figure 6 Screening for inhibitors of trans-differentiation in rat and human HSCs – Part 2. Photomicrographs of human HSCs at day 12 of culture with the indicated treatment (a); levels of expression of α-smooth muscle actin (α-sma) (b) and levels of expression of fibrogenic marker mRNA transcripts in human HSCs after treatment selected compounds for 19 days. Data are the mean and standard deviation relative transcript level from 3 separate treatments on cells from the same donor, typical of at least 3 separate donors (c).
as §2

The test system of another data set is human myofibroblasts. Put plainly: Fibrogenic marker mRNA transcripts (TGFβ, TIMP1, collagen 1A1) in human myofibroblasts, qRT-PCR. It is filed as cell-based. Particulars: treatment for 19 days. From the text: Quantitative transcript expression was examined after reverse transcription (using a Taqman reverse transcription kit (Applied Biosystems)) using a PE Applied Biosystems ABI7700 and PE Applied Biosystems Gene Expression Assay™, incorporating sequence-specific forward, reverse and fluorescently labelled probes (see Table 2).
For orientation: Real-time PCR tracks product formation cycle by cycle.

In another data set the test system is CYP3A4. The experiment in a line: Screening for PXR activators in human hepatocytes via CYP3A induction (Western blot). Particulars: 24 hours treatment, Western blot. It is filed as cell-based.
Data set [2] addresses progesterone binding protein in pig liver microsomes. Particulars: read-out: IC50% for competition for progesterone binding protein; cited from earlier work.
[3] abbreviates: read-out: IC50% (competition of substituted progestins for binding to rat liver microsomes), Additional file 1.
Setting [4] is: read-out: IC50% (competition of dexamethasone derivatives for binding to rat liver microsomes), Additional file 2.

A word on the IC50: it is the concentration at which inhibition is half-maximal.

Chain of low affinity glucocorticoid binding site (LAGS) in rat liver microsomes (P70580 2-195): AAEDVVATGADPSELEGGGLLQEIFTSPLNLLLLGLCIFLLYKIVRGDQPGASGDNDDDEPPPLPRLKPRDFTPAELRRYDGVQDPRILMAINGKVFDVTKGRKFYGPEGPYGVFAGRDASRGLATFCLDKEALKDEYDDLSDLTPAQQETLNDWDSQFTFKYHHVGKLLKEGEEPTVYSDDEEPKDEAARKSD
T1 sequence (P70580 whole entry): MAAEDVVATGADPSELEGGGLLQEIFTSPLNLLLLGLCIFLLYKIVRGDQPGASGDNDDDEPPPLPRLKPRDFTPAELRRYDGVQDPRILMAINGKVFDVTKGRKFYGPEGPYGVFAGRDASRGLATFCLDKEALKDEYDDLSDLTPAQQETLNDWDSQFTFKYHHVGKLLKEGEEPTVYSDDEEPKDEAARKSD

On to `CC(=NOCC(=O)O)[C@H]1CC[C@H]2[C@@H]3CCC4=C[C@@H](O)CC[C@]4(C)[C@H]3CC[C@]12C` [4 pregnene-3β-ol-20-one carboxymethyloxime], for which, in data set [1] (setting [3]), the IC50 is > 100 µM. As to `C[C@@H]1C[C@H]2[C@@H]3CCC4=CC(=O)C=C[C@]4(C)[C@@]3(F)[C@@H](O)C[C@]2(C)[C@@]1(O)C(=O)COS(C)(=O)=O` [dexamethasone mesylate], the IC50 in data set [1] (setting [4]) was 10 µM. On to `CCOC(=O)[C@H]1CC[C@H]2[C@@H]3CCC4=CC(=O)CC[C@]4(C)[C@H]3CC[C@]12C` [4 androstene-3-one 17β-carboxylic acid ethyl ester], for which the IC50 in data set [1] (setting [3]) is 0.1 µM. For the compound `CC(=O)O[C@@H]1C=C2CC[C@H]3[C@@H]4CC[C@H](C(C)=O)[C@@]4(C)CC[C@@H]3[C@@]2(C)CC1` [4 pregnene-3β-ol-20-one acetate], the IC50 in data set [1] (setting [3]) came out at 0.5 µM. Same read-out and setting: the figure for `CCC(=O)O[C@H]1CC[C@H]2[C@@H]3CCC4=CC(=O)CC[C@]4(C)[C@H]3CC[C@]12C` [testosterone proprionate, reference compound] is 10 µM; for `CC(=O)O[C@@H]1C[C@]2(C)[C@@H](C(C)=O)CC[C@H]2[C@@H]2CCC3=CC(=O)CC[C@]3(C)[C@H]21` [11α-progesterone acetate] it is 0.1 µM; for `CC(=O)[C@H]1CC[C@H]2[C@@H]3CCC4=CC(=O)CC[C@]4(C)[C@H]3[C@H](OS(=O)(=O)c3ccc(C)cc3)C[C@]12C` [11α-progesterone tosylate] it is 10 µM. For the compound `CC(=O)[C@H]1[C@H](C#N)C[C@H]2[C@@H]3CC=C4C[C@@H](O)CC[C@]4(C)[C@H]3CC[C@@]21C` [PCN, pregnenolone 16α carbonitrile], the “inhibition of rat HSC trans-differentiation” value in the data set on rat HSCs is reported as “inhibited”. Besides, the “competition with dexamethasone for binding to COS-7 cell extracts over-expressing rPGRMC1” value on rPGRMC1 was “significant competition”. In addition, in the data set with CYP3A1/3A23, the “CYP2E expression in rat hepatocytes” value is “no affect” and the “CYP3A1/3A23 expression (induction) in rat hepatocytes” value is “induced”. For the compound `CC(=O)[C@H]1CC[C@H]2[C@@H]3CCC4=C[C@@H](O)CC[C@]4(C)[C@H]3CC[C@]12C` [4 pregnene-3β-ol-20-one], in data set [1] (setting [3]), the IC50 came out at 0.5 µM. Turning to `CC(=O)[C@H]1CC[C@H]2[C@@H]3C[C@@H](O)C4=CC(=O)CC[C@]4(C)[C@H]3CC[C@]12C` [6α-hydroxyprogesterone], the IC50 in data set [1] (setting [3]) came to 5 µM.

In the case of `CC(=O)[C@H]1CC[C@H]2[C@@H]3CCC4=CC(=O)CC[C@]4(C)[C@H]3[C@H](O)C[C@]12C` [11α-hydroxyprogesterone], the IC50 in data set [1] (setting [3]) was 0.1 µM. As for `CO[C@H]1/C=C/O[C@@]2(C)Oc3c(C)c(O)c4c(O)c(c(/C=N/N5CCN(C)CC5)c(O)c4c3C2=O)NC(=O)/C(C)=C\C=C\[C@H](C)[C@H](O)[C@@H](C)[C@@H](O)[C@@H](C)[C@H](OC(C)=O)[C@@H]1C` [rifampicin, reference compound], in the data set on human HSCs, the “inhibitory activity on human HSC trans-differentiation” value is listed as “significant inhibitory activity”. The “expression of TGFβ, TIMP1 and collagen 1A1 mRNAs in human myofibroblasts” value in the data set on human myofibroblasts is given as “inhibited the expression of all mRNAs”.

For `CC1CC2C3CCC4=CC(=O)C=CC4(C)C3(F)C(O)CC2(C)C1(O)C(=O)O` (stereo not drawn) [17β-carboxylic acid derivative, 9α-fluoro 16α-methyl-11β,17α-dihydroxy-1,4-pregn-3-one 17-carboxylic acid], the IC50 in data set [1] (setting [4]) was 100 µM. With `C[C@]12CCC(=O)C=C1CC[C@@H]1[C@@H]2CC[C@]2(C)C(=O)CC[C@@H]12` [androstenedione, reference compound], in data set [1] (setting [3]), the IC50 was 5 µM. The same measure, in the same setting: the value for `CC(=O)[C@H]1CC[C@H]2[C@@H]3C[C@@H](O)C4=CC(=O)CC[C@]4(C)[C@H]3CC[C@]12C` [6β-hydroxyprogesterone] was 10 µM. As for `CC(=O)[C@H]1CC[C@H]2[C@@H]3CCC4=CC(=O)CC[C@]4(C)[C@H]3[C@@H](O)C[C@]12C` [11β-hydroxyprogesterone], the “inhibitory activity on human HSC trans-differentiation” value in the data set with human HSCs is listed as “significant inhibitory activity”. As to `CC(=O)[C@H]1CC[C@H]2[C@@H]3CCC4=CC(=O)CC[C@]4(C)[C@H]3CC[C@]12C` [progesterone, reference compound], the “inhibition of rat HSC trans-differentiation” value in the data set with rat HSCs was “markedly inhibited”. For the same compound, the “competition for dexamethasone binding to rat liver microsomes (in words)” value in data set [1] (rat liver microsomes) is “competed”. Further, the “inhibitory activity on human HSC trans-differentiation” value in the data set with human HSCs was “significant inhibitory activity”. For the compound biotinylated dexamethasone, in data set [1] (setting [4]), the 50% inhibitory concentration (IC50) is > 100 µM. On to `CC(=O)O[C@@H]1C[C@H]2[C@@H]3CC[C@H](C(C)=O)[C@@]3(C)CC[C@@H]2[C@@]2(C)CCC(=O)C=C12` [6β-progesterone acetate], for which, in data set [1] (setting [3]), the IC50 was 0.5 µM. As to `C[C@H]1C[C@@H]2[C@H]([C@@H](O)C[C@@]3(C)[C@H]2CC[C@]3(O)C(=O)CO)[C@@]2(C)C=CC(=O)C=C12` [methylprednisolone, reference compound], the “CYP3A4 expression (induction) in human hepatocytes” value in the data set with CYP3A4 is reported as “evidence of induction”.

Regarding `C[C@@H]1C[C@H]2[C@@H]3CCC4=CC(=O)C=C[C@]4(C)[C@@]3(F)[C@@H](O)C[C@]2(C)[C@@]1(O)C(=O)CO` [dexamethasone, reference compound], the IC50 in data set [2] was > 100 µM. Besides, the “maximal binding site concentration” value in data set [1] (radiolabelled dexamethasone, rat liver microsomes) is reported as 8.3 pmoles/mg of microsomal protein.
